The values that follow come from patent publication US20050227961A1, “Compositions and methods for treatment of neuropathic pain, fibromyalgia and chronic fatigue syndrome” (Vela Pharmaceuticals, Inc., priority 2004, published 2005).

In the assay the test system is lesioned hindpaw of rats suffering from neuropathic pain. Description: Neuropathic pain, thermal stimulation model in the rat (Chung spinal nerve ligature), paw withdrawal latency. Particulars: for Paw Withdrawal Latent (seconds) for Lesioned Paw, mean ± SEM / Paw withdrawal latency, % change compared with vehicle control: thermal stimulation.

Take `CN1CC[C@]23c4c5ccc(O)c4O[C@H]2[C@@H](O)C=C[C@H]3[C@H]1C5` [Morphine]: the “Paw Withdrawal Latent (seconds) for Lesioned Paw, mean ± SEM” value (shortened to “Paw Withdrawal Latent … mean ± SEM”) reads like this: (128 mg/kg p.o., at 30 min) 23.5 ± 6.4 s; (128 mg/kg p.o., at 1 h) 40.5 ± 3.0 s; (128 mg/kg p.o., at 2 h) 16.7 ± 6.0 s; (128 mg/kg p.o., at 4 h) 21.7 ± 5.7 s. In addition, the “Paw withdrawal latency, % change compared with vehicle control” value (“Paw withdrawal latency, % change” for short) is reported as “+104%” (128 mg/kg p.o., at 30 min); “+185%” (128 mg/kg p.o., at 1 h); −7% (128 mg/kg p.o., at 2 h); “+10%” (128 mg/kg p.o., at 4 h).
For the molecule `CN1c2ccccc2C(NCCCCCCC(=O)O)c2ccc(Cl)cc2S1(=O)=O` (stereo not drawn) [Tianeptine, 7-[(3-chloro-6,11-dihydro-6-methyl-dibenzo[c,f][1,2]thiazepin-11-yl)amino]heptanoic acid S,S-dioxide], the “Paw Withdrawal Latent … mean ± SEM” value by setting is: (3 mg/kg p.o., at 30 min) 12.7 ± 4.9 s; (3 mg/kg p.o., at 1 h) 20.3 ± 5.3 s; (3 mg/kg p.o., at 2 h) 20.6 ± 6.3 s; (3 mg/kg p.o., at 4 h) 13.8 ± 4.4 s; (10 mg/kg p.o., at 30 min) 19.2 ± 6.0 s; (10 mg/kg p.o., at 1 h) 15.1 ± 4.5 s. Also, the “Paw Withdrawal Latent … mean ± SEM” value (10 mg/kg p.o., at 2 h) was found to be 16.1 ± 5.1 s; the “Paw Withdrawal Latent … mean ± SEM” value (10 mg/kg p.o., at 4 h) is 26.1 ± 5.4 s; the “Paw Withdrawal Latent … mean ± SEM” value (30 mg/kg p.o., at 30 min) was 33.3 ± 5.5 s; the “Paw Withdrawal Latent … mean ± SEM” value (30 mg/kg p.o., at 1 h) is 29.0 ± 7.3 s; the “Paw Withdrawal Latent … mean ± SEM” value (30 mg/kg p.o., at 2 h) is 16.9 ± 5.0 s; the “Paw Withdrawal Latent … mean ± SEM” value (30 mg/kg p.o., at 4 h) is 19.3 ± 5.8 s. The “Paw withdrawal latency, % change” value runs as follows: (3 mg/kg p.o., at 30 min) “+10%”; (3 mg/kg p.o., at 1 h) “+43%”; (3 mg/kg p.o., at 2 h) “+15%”; (3 mg/kg p.o., at 4 h) −30%; (10 mg/kg p.o., at 30 min) “+67%”; (10 mg/kg p.o., at 1 h) “+6%”. Besides, the “Paw withdrawal latency, % change” value reads like this: (10 mg/kg p.o., at 2 h) −10%; (10 mg/kg p.o., at 4 h) “+32%”; (30 mg/kg p.o., at 30 min) “+190%”; (30 mg/kg p.o., at 1 h) “+104%”; (30 mg/kg p.o., at 2 h) −6%; (30 mg/kg p.o., at 4 h) −2%. The “paw withdrawal latency after thermal stimulation in the lesioned paw (result in words)” value (30 mg/kg, at 30 minutes) was “significant increase”.
